Results as given in article PMC6615252, “The binding affinity of PTPN13’s tandem PDZ2/3 domain is allosterically modulated” (BMC Molecular and Cell Biology, 2019).
“And” between values parts separate entries of the source, which are not always exact repeats. Equal values may be shown once. “Also recorded” adds a separate entry of the source. Each block holds one molecule with its values, some of them ahead of it. Residues, ends and D or L forms follow the SMILES beside them.

Assays:
[1] = biological target: PDZ3 domain of PTPN13; conditions: single PDZ3 domain; NMR titration, 298 K, pH 7.4, PBS, DTT added; ref [12]; read-out: dissociation constant KD, PDZ3; cited from earlier work
From the text: The observed differences for APC binding to PDZ2 versus tandem PDZ2/3 are not large yet still considerable.

[2] = biological target: T1, PDZ2 domain of PTPN13 (Mus musculus, UniProt Q64512); experiment: NMR titration (2D 1H-15N-HSQC chemical shift perturbation) of 15N-enriched single PDZ2 domain with C-terminal dodecapeptides; format: binding; conditions: for NMR chemical shift perturbations of PDZ2 on peptide binding: 2D 1H-15N-HSQC, 298 K, pH 7.4
T1 construct: pGEX-2 T-PDZ2 (PTPN13 residues 1347–1450); GST (N, cleaved yes); made in house; host or cells: E. coli BL21(DE3)
T1 sequence (Q64512 1347-1450): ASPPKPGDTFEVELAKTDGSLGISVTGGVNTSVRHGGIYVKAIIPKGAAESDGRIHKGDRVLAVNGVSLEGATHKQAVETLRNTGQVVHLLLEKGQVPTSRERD
Procedure: (§1) We have applied multidimensional heteronuclear NMR spectroscopy in order to elucidate the binding affinities of the PDZ2 single domain and the tandem domain PDZ2/3 of PTPN13 for the chemically synthesized C-terminal dodecapeptides derived from APC and PRK2. The binding characteristics were analyzed in a titration series of the dodecamer peptides and ^15N isotopically-enriched PDZ2 and PDZ2/3 samples, respectively, and by monitoring the NMR chemical shift perturbations in a series of 2D ^1H-^15N heteronuclear single quantum coherence (HSQC) spectra with increasing ligand concentrations. It could be shown that all peptides bind to the canonical binding groove of PDZ domains (Figs. 1, 2, 3 and 4).
Bacterial expression plasmids pGEX-2 T-PDZ2 (PTPN13 residues 1347–1450), pGEX-2 T-PDZ3 (PTPN13 residues 1474–1580), and pGEX-2 T-PDZ2/3 (PTPN13 residues 1347–1580) were constructed by sub-cloning of PCR-generated PTPN13 cDNA fragments in-frame into appropriate pGEX-2 T vectors.
(§2) NMR spectra were acquired at 298 K on Bruker DRX 600 and AVANCE III HD 700 spectrometers. Typically, NMR samples contained 0.1–0.5 mM uniformly ^13C and/or ^15N-enriched protein in PBS buffer at pH 7.4 including 10% D2O [42–44]. All data were processed with either NMRPipe and analyzed with NMR View or TopSpin (www.bruker.com). […] The interaction between PDZ2 and PDZ3 was analyzed upon titrating PDZ3 to isotopically ^15N-enriched PDZ2 at a molar ratio of 1:1 at 298 K by recording 2D ^1H-^15N-HSQC NMR spectra. […] The differences in backbone ^1H and ^15N NMR chemical shifts were monitored via 2D ^1H-^15N-HSQC NMR spectra. The weighted ^1HN and ^15N chemical shift differences were calculated according to the following equation [45, 47]: […]
(§3) Averaged dissociation constants for the different complexes were calculated from least-squares fitting of the NMR chemical shift perturbations observed for several amino acids as a function of ligand concentration. NMR chemical shift perturbation data were analysed with the ORIGIN software package (www.originlab.com) as previously published. […]

[3] = system: single PDZ2 domain of PTPN13; conditions: previous study; class I (APC) and III (RIL) ligands; ref [21]; cited from earlier work
From the text: Based on the results from the NMR chemical shift perturbation analysis and HADDOCK molecular docking calculations we conclude, that an allosteric effect modulates the APC-binding characteristics of PDZ2 from PTPN13 (Fig. 7). Although peptides rather than the corresponding full-length proteins have been used here, numerous studies have shown before that the last four to six carboxy-terminal amino acids are essential for ligand binding to PDZ domains.

[4] = biological target: T2, PDZ2 in PDZ2/3 tandem domain of PTPN13 (Mus musculus, UniProt Q64512); experiment: NMR titration of PDZ2/3 tandem domain, PDZ2 resonances (PDZ2 in PDZ2/3); format: binding; conditions: final stoichiometric ratio APC:PDZ2/3 30:1
T2 construct: pGEX-2 T-PDZ2/3 (PTPN13 residues 1347–1580); GST (N, cleaved yes); made in house; host or cells: E. coli BL21(DE3)
T2 sequence (Q64512 1347-1580): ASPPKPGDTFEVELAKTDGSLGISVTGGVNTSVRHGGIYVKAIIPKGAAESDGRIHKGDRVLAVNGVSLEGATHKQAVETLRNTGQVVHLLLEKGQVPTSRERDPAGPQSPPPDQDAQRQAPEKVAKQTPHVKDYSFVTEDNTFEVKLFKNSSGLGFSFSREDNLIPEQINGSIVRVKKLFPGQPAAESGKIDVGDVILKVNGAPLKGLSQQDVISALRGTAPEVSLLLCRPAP
Procedure: as §1, with “4). […]” for “4).”
as §2, with “Typically, NMR samples contained 0.1–0.5 mM uniformly ^13C and/or ^15N-enriched protein in PBS buffer at pH 7.4 including 10% D2O [42–44].” left out

[5] = biological target: T3, PDZ3 in PDZ2/3 tandem domain of PTPN13 (Mus musculus, UniProt Q64512); experiment: NMR titration of PDZ2/3 tandem domain, PDZ3 resonances (PDZ3 in PDZ2/3); format: binding; conditions: data not shown
T3 construct: pGEX-2 T-PDZ2/3 (PTPN13 residues 1347–1580); GST (N, cleaved yes); made in house; host or cells: E. coli BL21(DE3)
T3 sequence (Q64512 1347-1580): T2 sequence (Q64512 1347-1580)
Procedure: as §1, with “4). […]” for “4).”
as §2, with “Typically, NMR samples contained 0.1–0.5 mM uniformly ^13C and/or ^15N-enriched protein in PBS buffer at pH 7.4 including 10% D2O [42–44].” left out

[6] = biological target: T4, PDZ2/3 tandem domain of PTPN13 (Mus musculus, UniProt Q64512); experiment: NMR titration of PDZ2/3 tandem domain with APC peptide, chemical shift perturbations and exchange regime; format: binding
T4 construct: pGEX-2 T-PDZ2/3 (PTPN13 residues 1347–1580); GST (N, cleaved yes); made in house; host or cells: E. coli BL21(DE3)
T4 sequence (Q64512 1347-1580): T2 sequence (Q64512 1347-1580)
Procedure: as §1
NMR spectra were acquired at 298 K on Bruker DRX 600 and AVANCE III HD 700 spectrometers. Typically, NMR samples contained 0.1–0.5 mM uniformly ^13C and/or ^15N-enriched protein in PBS buffer at pH 7.4 including 10% D2O [42–44]. All data were processed with either NMRPipe and analyzed with NMR View or TopSpin (www.bruker.com). The backbone assignments were obtained from the BioMagResBank accession numbers 15,199 (PDZ2/3) and 5131 (PDZ2). The interaction between PDZ2 and PDZ3 was analyzed upon titrating PDZ3 to isotopically ^15N-enriched PDZ2 at a molar ratio of 1:1 at 298 K by recording 2D ^1H-^15N-HSQC NMR spectra. […] The differences in backbone ^1H and ^15N NMR chemical shifts were monitored via 2D ^1H-^15N-HSQC NMR spectra. The weighted ^1HN and ^15N chemical shift differences were calculated according to the following equation [45, 47]: […]
as §3, with “published. The error for KD values was calculated from the individual fit of several significant chemical shift perturbations found for the amide resonances located in and/or next to the canonical PDZ binding cleft.” for “published.”

[7] = biological target: T5, APC peptide (Homo sapiens); experiment: NMR titration
T5 chain: KRHSGSYLVTSV

[8] = biological target: T6, PRK2 peptide (Homo sapiens); experiment: NMR titration
T6 chain: MFRDFDYIADWC

[9] = biological target: T1, PDZ2 domain of PTPN13; experiment: NMR titration of single PDZ3 domain to 15N-enriched PDZ2 domain; format: binding; conditions: 15N-PDZ2, molar ratio 1:1, 2D 1H-15N-HSQC, 298 K; stoichiometry limited by solubility
Procedure: Thus, we titrated the single PDZ3 domain (residues 1491–1579) to the ^15N-enriched PDZ2 domain (residues 1357–1442) and monitored their interaction by recording a series of 2D ^1H-^15N-HSQC NMR spectra (Fig. 4a). […] However, the final maximal stoichiometry of PDZ2 and PDZ3 was approx. 1:1 due to solubility issues.
NMR spectra were acquired at 298 K on Bruker DRX 600 and AVANCE III HD 700 spectrometers. Typically, NMR samples contained 0.1–0.5 mM uniformly ^13C and/or ^15N-enriched protein in PBS buffer at pH 7.4 including 10% D2O [42–44]. All data were processed with either NMRPipe and analyzed with NMR View or TopSpin (www.bruker.com). The backbone assignments were obtained from the BioMagResBank accession numbers 15,199 (PDZ2/3) and 5131 (PDZ2). The interaction between PDZ2 and PDZ3 was analyzed upon titrating PDZ3 to isotopically ^15N-enriched PDZ2 at a molar ratio of 1:1 at 298 K by recording 2D ^1H-^15N-HSQC NMR spectra. In this study, the numbering scheme of the assigned chemical shifts for PDZ2 (5131) and PDZ23 (15199) has been shifted by one residue so that, for example, T30 according to the BMRB entry 5131 now equals T31. […] The differences in backbone ^1H and ^15N NMR chemical shifts were monitored via 2D ^1H-^15N-HSQC NMR spectra. The weighted ^1HN and ^15N chemical shift differences were calculated according to the following equation [45, 47]: […]

Molecule: CC[C@H](C)[C@H](NC(=O)[C@H](Cc1ccc(O)cc1)NC(=O)[C@H](CC(=O)O)NC(=O)[C@H](Cc1ccccc1)NC(=O)[C@H](CC(=O)O)NC(=O)[C@H](CCCNC(=N)N)NC(=O)[C@H](Cc1ccccc1)NC(=O)[C@H](CCSC)NC(C)=O)C(=O)N[C@@H](C)C(=O)N[C@@H](CC(=O)O)C(=O)N[C@@H](Cc1c[nH]c2ccccc12)C(=O)N[C@@H](CS)C(=O)O [PRK2] (Ac-MFRDFDYIADWC-OH; C-terminus assumed)
Kd [1]: 318 ± 47 µM
NMR chemical shift perturbations of PDZ2 on peptide binding [2]: NMR chemical shift differences were observed for the canonical ligand binding groove of PDZ2 including G23, S24, which are also involved in peptide recognition, and S28, and G31; also recorded: Additional NMR chemical shift perturbations were observed for the β-strands EA and EF of PDZ2, located opposite to its canonical peptide binding groove

B3: PDZ3: single PDZ3 domain (residues 1491–1579) of PTPN13 (protein, UniProt Q12923 1491-1579, looked up, fragment)
chain: YSFVTEENTFEVKLFKNSSGLGFSFSREDNLIPEQINASIVRVKKLFPGQPAAESGKIDVGDVILKVNGASLKGLSQQEVISALRGTAP
modifications: PDZ3 domain
notes: single PDZ3 domain (residues 1491–1579) of PTPN13
chemical shift differences of PDZ2 upon titration with PDZ3 [9]: Only very minor chemical shift differences could be observed, if at all; also recorded: only yielded minor chemical shift differences; also recorded: Only very minor, if at all, chemical shift differences could be observed

The next lines start with results.

NMR exchange regime of binding to tandem PDZ2/3 ([6]; 298 K, pH 7.4): fast exchange
Molecule: CC(=O)N[C@@H](CCCCN)C(=O)N[C@@H](CCCNC(=N)N)C(=O)N[C@@H](Cc1c[nH]cn1)C(=O)N[C@@H](CO)C(=O)NCC(=O)N[C@@H](CO)C(=O)N[C@@H](Cc1ccc(O)cc1)C(=O)N[C@@H](CC(C)C)C(=O)N[C@H](C(=O)N[C@H](C(=O)N[C@@H](CO)C(=O)N[C@H](C(=O)O)C(C)C)[C@@H](C)O)C(C)C [APC]
binding to single PDZ2 domain [3]: able to bind
Kd [1]: ~721 µM and 721 µM
saturation of PDZ2 resonances at end of titration [4]: no further chemical shift changes were observed for amide resonances originating from the PDZ2 domain
saturation of PDZ3 at end of titration [5]: PDZ3 was not fully saturated at the end of the titration
NMR chemical shift perturbations of PDZ2 on peptide binding [2]: leads to NMR chemical shift differences observed along intra-domain signal pathways as previously predicted
peptide-induced dimerisation of PDZ2 ([2]; comparison of free and APC-bound NMR spectra of individual PDZ2): exclude an APC-induced dimerisation of PDZ2
NMR chemical shift perturbations of PDZ2/3 tandem on titration ([6]; 2D 1H-15N-HSQC, 298 K, pH 7.4): NMR chemical shift perturbations were observed for G12, L19, T31, G63, H94, L95, L97 of PDZ2 and K152 as well as S231 of PDZ3 in the tandem domain
chemical shift differences between single PDZ2-APC complex and PDZ2 in PDZ2/3-APC complex ([6]; APC peptide at molar ratio 1:30, single PDZ2 vs PDZ2 in PDZ2/3): Major NMR chemical shift perturbations were observed on the back of the PDZ2 domain, i.e. opposite to the canonical PDZ binding cleft, mainly for EF (H94, L95, L97) and for EA (L19)

Kd [7]: 211 µM
B1: PTPN13 (PDZ2 in PDZ2/3 tandem) PDZ2 in PDZ2/3 (protein)
chain: EVELAKNDNSLGISVTGGVNTSVRHGGIYVKAVIPQGAAESDGRIHKGDRVLAVNGVSLEGATHKQAVETLRNTGQVVHLLLEKG

Kd [8]: 661 µM
Kd [7]: 286 µM
B2: PTPN13 PDZ2 (protein)
chain: DIFEVELAKNDNSLGISVTGGVNTSVRHGGIYVKAVIPQGAAESDGRIHKGDRVLAVNGVSLEGATHKQAVETLRNTGQVVHLLLEKGQSP

Kd [7]: 2570 µM
B4: PTPN13 (PDZ3 in PDZ2/3 tandem) PDZ3 in PDZ2/3 (protein)
chain: EVKLFKNSSGLGFSFSREDNLIPEQINASIVRVKKLFPGQPAAESGKIDVGDVILKVNGASLKGLSQQEVISALRGTAPEVFLLLCRP
